Calls of active or inactive are those of the source. The rule behind the calls is not given here.
Key:
[1] = molecular target: T1, Neutrophil elastase (Homo sapiens, UniProt P08246); assay: The compound was evaluated in vitro for the inhibition of human leukocyte elastase(HLE)
T1 sequence (P08246 whole entry): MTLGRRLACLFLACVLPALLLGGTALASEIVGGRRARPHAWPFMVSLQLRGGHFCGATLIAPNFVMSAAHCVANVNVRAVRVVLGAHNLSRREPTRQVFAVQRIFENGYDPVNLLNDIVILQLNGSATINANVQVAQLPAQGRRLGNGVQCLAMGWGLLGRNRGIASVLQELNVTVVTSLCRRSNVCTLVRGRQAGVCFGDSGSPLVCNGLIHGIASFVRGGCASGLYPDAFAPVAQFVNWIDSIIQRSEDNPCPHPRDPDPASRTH

[2] = molecular target: T2, Neutrophil elastase (Homo sapiens) (UniProt P08246); assay: The compound was evaluated in vitro for the inhibition of human leukocyte elastase(HLE); Not Active
T2 sequence (whole entry): T1 sequence (P08246 whole entry)

[3] = molecular target: T3, Chymotrypsin-like elastase family member 2A (Sus scrofa) (UniProt P08419); assay: The compound was evaluated in vitro for the inhibition of Pancreatic elastase (PPE); Not Active
T3 sequence (whole entry): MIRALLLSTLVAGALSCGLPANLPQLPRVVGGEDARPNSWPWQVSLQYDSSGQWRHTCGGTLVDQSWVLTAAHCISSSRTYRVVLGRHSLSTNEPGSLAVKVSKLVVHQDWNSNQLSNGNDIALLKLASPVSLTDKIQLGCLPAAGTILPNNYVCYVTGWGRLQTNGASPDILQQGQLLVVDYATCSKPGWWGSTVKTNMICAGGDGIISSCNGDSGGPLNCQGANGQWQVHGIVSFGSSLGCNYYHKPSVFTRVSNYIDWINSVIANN

| Compound | IC50 [1] | Activity [2] | Activity [3] |
| --- | --- | --- | --- |
| CO[C@@H]1C(=O)N(C(C)=O)[C@@H]1/C(C)=C/c1ccccc1 | 1.4 µM |  |  |
| CO[C@@H]1C(=O)N[C@@H]1/C=C/c1ccccc1 |  | inactive | inactive |
| O=c1oc(Cl)c(Cl)c2ccccc12 | 0.1 µM |  |  |
| CCCC[C@H]1C(=O)N([C@@H](C2SCCCS2)C2OC(C)(C)OC2C2COC(C)(C)O2)[C@H]1/C(C)=C/c1ccccc1 (stereo not given in full) | 13 µM |  |  |
| CCCC[C@@H]1C(=O)N[C@@H]1/C(C)=C/c1ccccc1 (stereo in doubt; 11) |  | inactive | inactive |
| CO[C@H]1C(=O)N([C@@H](C2SCCCS2)C2OC(C)(C)OC2C2COC(C)(C)O2)[C@H]1/C=C/c1ccccc1 (stereo not given in full) | 76 µM |  |  |
| CO[C@@H]1C(=O)N[C@@H]1c1ccccc1 |  | inactive | inactive |
| CCCC[C@@H]1C(=O)N(C(C)=O)[C@@H]1/C(C)=C/c1ccccc1 | 43 µM |  |  |
| CCCC[C@@H]1C(=O)N[C@@H]1/C(C)=C/c1ccccc1 (stereo in doubt; 10) |  | inactive | inactive |
| CO[C@@H]1C(=O)N(C(C)=O)[C@@H]1c1ccccc1 | 1.6 µM |  |  |
| CO[C@@H]1C(=O)N[C@@H]1OC(C)=O |  | inactive | inactive |
| CCCC[C@@H]1C(=O)N([C@@H](C2SCCCS2)C2OC(C)(C)OC2C2COC(C)(C)O2)[C@@H]1/C(C)=C/c1ccccc1 (stereo not given in full) | 11 µM |  |  |
| CO[C@H]1C(=O)N[C@H]1/C=C/c1ccccc1 |  | inactive | inactive |

Other lines, results leading:

| IC50 [1] | Activity [2] | Activity [3] | Compound |
| --- | --- | --- | --- |
|  | inactive | inactive | CO[C@@H]1C(=O)N[C@@H]1C(C)=O |
|  | inactive | inactive | CO[C@@H]1C(=O)N[C@@H]1/C(C)=C/c1ccccc1 |
| 94 µM |  |  | CO[C@@H]1C(=O)N(C(C)=O)[C@@H]1C(C)=O |
| 45 µM |  |  | CCCC[C@@H]1C(=O)N(C(C)=O)[C@@H]1C(C)=O |
|  | inactive | inactive | CO[C@H]1C(=O)N[C@H]1c1ccccc1 |
| 18 µM |  |  | CO[C@@H]1C(=O)N([C@@H](C2SCCCS2)C2OC(C)(C)OC2C2COC(C)(C)O2)[C@@H]1/C(C)=C/c1ccccc1 (stereo not given in full) |
|  | inactive | inactive | CCCC[C@@H]1C(=O)N[C@@H]1C(C)=O |
